Where only a bound is given, the exact number is not on record here.

The values that follow come from US20230117034A1, “PYRAZOLOTRIAZINES” (Bayer Aktiengesellschaft, priority 2019, published 2023).

The assay addresses T1, CDK9/CycT1 (Homo sapiens, UniProt P50750).
T1 construct: Recombinant full-length His-tagged human CDK9 and CycT1; purchased Life Technologies PV4131; host or cells: insect cells
Briefly: CDK9/CycT1 high ATP kinase assay (TR-FRET, 2 mM ATP). Conditions: 2 mM ATP (high ATP); median; read-out: CDK9/CyclinT1, 2 mM ATP (high ATP), IC50 (median). It is filed as biochemical. In short, it runs like this: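 Full-length His-tagged human CDK9/CycT1 (insect cell, ~0.5 μg/mL) preincubated 15 min at 22 °C with compound in Tris pH 8.0, MgCl2, DTT buffer before reaction with biotinylated peptide substrate at high ATP (2 mM).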
A general note: In TR-FRET formats the signal depends on donor and acceptor labels being close together.

T1 sequence (P50750 whole entry): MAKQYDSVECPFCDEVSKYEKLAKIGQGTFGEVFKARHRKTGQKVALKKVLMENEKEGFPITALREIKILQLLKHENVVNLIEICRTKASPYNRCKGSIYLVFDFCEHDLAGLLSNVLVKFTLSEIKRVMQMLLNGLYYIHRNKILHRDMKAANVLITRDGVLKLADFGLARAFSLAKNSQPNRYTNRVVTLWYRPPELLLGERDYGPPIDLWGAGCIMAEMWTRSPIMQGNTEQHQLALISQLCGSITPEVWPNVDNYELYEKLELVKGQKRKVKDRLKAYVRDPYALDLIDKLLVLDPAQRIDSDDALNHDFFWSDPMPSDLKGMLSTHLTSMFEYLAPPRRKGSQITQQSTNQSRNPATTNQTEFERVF
T1 sequence (O60563 whole entry partner): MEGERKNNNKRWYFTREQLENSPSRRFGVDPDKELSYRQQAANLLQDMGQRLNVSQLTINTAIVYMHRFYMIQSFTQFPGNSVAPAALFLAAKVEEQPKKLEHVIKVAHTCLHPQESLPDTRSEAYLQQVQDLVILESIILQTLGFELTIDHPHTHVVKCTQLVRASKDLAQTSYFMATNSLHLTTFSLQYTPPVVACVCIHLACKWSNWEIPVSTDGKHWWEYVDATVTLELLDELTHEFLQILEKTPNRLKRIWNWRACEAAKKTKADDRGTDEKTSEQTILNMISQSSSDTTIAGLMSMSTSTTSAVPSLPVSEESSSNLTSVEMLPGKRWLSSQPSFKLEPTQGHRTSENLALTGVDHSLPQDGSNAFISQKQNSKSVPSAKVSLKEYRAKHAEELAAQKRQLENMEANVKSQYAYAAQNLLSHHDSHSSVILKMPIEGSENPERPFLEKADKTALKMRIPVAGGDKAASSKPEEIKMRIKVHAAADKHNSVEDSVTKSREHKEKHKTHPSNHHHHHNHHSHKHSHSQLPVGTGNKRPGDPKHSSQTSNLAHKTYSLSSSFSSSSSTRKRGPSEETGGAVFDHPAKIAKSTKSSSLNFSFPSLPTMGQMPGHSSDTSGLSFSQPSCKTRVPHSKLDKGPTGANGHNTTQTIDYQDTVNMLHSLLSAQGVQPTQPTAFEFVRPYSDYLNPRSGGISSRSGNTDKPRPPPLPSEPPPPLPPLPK

For the compound `Fc1cccc2[nH]c(CNc3nc(N4CCOCC4)nc4c(Cl)cnn34)nc12` [Example 361, 8-chloro-N-[(4-fluoro-1H-benzimidazol-2-yl)methyl]-2-(morpholin-4-yl)pyrazolo[1,5-a][1,3,5]triazin-4-amine], the IC50 stood at 13.8 µM. On to `CC[C@@H](CO)Nc1nc(NCc2nc3ccccc3[nH]2)n2ncc(Br)c2n1` [Example 367, (2S)-2-[(4-{[(1H-benzimidazol-2-yl)methyl]amino}-8-bromopyrazolo[1,5-a][1,3,5]triazin-2-yl)amino]butan-1-ol], for which the IC50 was determined as 17.6 µM. Turning to `CC[C@H](COC)Nc1nc(NCc2nc3ccccc3[nH]2)n2ncc(Br)c2n1` [Example 369, N4-[(1H-benzimidazol-2-yl)methyl]-8-bromo-N2-[(2R)-1-methoxybutan-2-yl]pyrazolo[1,5-a][1,3,5]triazine-2,4-diamine], the IC50 was greater than 20 µM. Regarding `Fc1cc(F)cc(-c2nnc(CNc3nc(N4CCOCC4)nc4c(C(F)(F)F)cnn34)[nH]2)c1` [Example 386, N-{[5-(3,5-difluorophenyl)-4H-1,2,4-triazol-3-yl]methyl}-2-(morpholin-4-yl)-8-(trifluoromethyl)pyrazolo[1,5-a][1,3,5]triazin-4-amine], the IC50 turned out to be 0.749 µM. Turning to `Brc1cnn2c(NCc3nc4ccccc4[nH]3)nc(N3C[C@H]4CC[C@@H]3CO4)nc12` (single isomer, unassigned) [Example 383, N-[(1H-benzimidazol-2-yl)methyl]-8-bromo-2-{[1R or S-(1R*,4R*)]-2-oxa-5-azabicyclo[2.2.2]octan-5-yl}pyrazolo[1,5-a][1,3,5]triazin-4-amine], the IC50 is greater than 20 µM. Turning to `Cc1ccnc2[nH]c(CNc3nc(N4CCN(C)CC4)nc4c(C(C)C)cnn34)nc12` [Example 32, N-[(7-methyl-3H-imidazo[4,5-b]pyridin-2-yl)methyl]-2-(4-methylpiperazin-1-yl)-8-(propan-2-yl)pyrazolo[1,5-a][1,3,5]triazin-4-amine], the IC50 is greater than 20 µM.

On to `CN(CC(C)(C)O)c1nc(NCc2nc3c(F)cccc3[nH]2)n2ncc(Cl)c2n1` [Example 366, 1-[(8-chloro-4-{[(4-fluoro-1H-benzimidazol-2-yl)methyl]amino}pyrazolo[1,5-a][1,3,5]triazin-2-yl)(methyl)amino]-2-methylpropan-2-ol], for which the IC50 was greater than 20 µM. To `Fc1cc2nc(CNc3nc(N4C[C@H]5CC[C@@H](C4)N5)nc4c(C5CC5)cnn34)[nH]c2cc1Cl` [Example 328, N-[(6-chloro-5-fluoro-1H-benzimidazol-2-yl)methyl]-8-cyclopropyl-2-[(1R,5S)-3,8-diazabicyclo[3.2.1]octan-3-yl]pyrazolo[1,5-a][1,3,5]triazin-4-amine] belongs 15 µM; to `FC(F)(F)Oc1cccc2[nH]c(CNc3nc(N4CCOCC4)nc4c(Br)cnn34)nc12` [Example 375, 8-bromo-2-(morpholin-4-yl)-N-{[4-(trifluoromethoxy)-1H-benzimidazol-2-yl]methyl}pyrazolo[1,5-a][1,3,5]triazin-4-amine], 14.5 µM; to `Brc1cnn2c(NCc3nc4ccccc4[nH]3)nc(N3C[C@H]4CC[C@@H]3CN4)nc12` (single isomer, unassigned) [Example 335, N-[(1H-benzimidazol-2-yl)methyl]-8-bromo-2-{[1R or S-(1R*,4R*)]-2,5-diazabicyclo[2.2.2]octan-2-yl}pyrazolo[1,5-a][1,3,5]triazin-4-amine], greater than 20 µM.
